US20130005676A1 (UNIVERSITY OF ROCHESTER, priority 2009, published 2013)
“Also recorded” adds a separate entry of the source. Blank lines part the entries; values can stand above or below the compound they belong to.

Columns and labels:
[1] = system: enzymes involved in extracellular degradation of AMP; assay: Phosphate production (Malachite Green) in tissue sections from the Zusanli point; type: biochemical, mice; settings: for rate of phosphate generation: 1 mM added as substrate, n=3; for dephosphorylation of AMP (phosphate production): inhibitor 500 μM, tissue in 1 mM AMP for 45 min
[2] = system: mice with inflammatory pain (CFA); assay: Inflammatory pain (CFA in paw): mechanical allodynia (Von Frey) and thermal hyperalgesia; type: in vivo
Excerpt: Peripheral inflammation was induced by injection of Complete Freud Adjuvant (CFA, mixed with an equal amount of oil, […], Jackson labs) (Raghavendra et al., “Complete Freunds Adjuvant-Induced Peripheral Inflammation Evokes Glial Activation and Proinflammatory Cytokine Expression in the CNS,” Eur. J. Neurosci. 20:467-473 (2004), which is hereby incorporated by reference in its entirety). […] Neuropathic pain was induced by ligation of the sciatic nerve with 4.0 polypropylene suture in mice sedated with ketamine (60 mg/kg, i.p.) and xylazine (10 mg/kg, i.p.) (Bennett et al., “A Peripheral Mononeuropathy in Rat that Produces Disorders of Pain Sensation Like Those Seen in Man,” Pain 33:87-107 (1988); Martucci et al., “The Purinergic Antagonist PPADS Reduces Pain Related Behaviours and Interleukin-1 beta, Interleukin-6, iNOS and nNOS Overproduction in Central and Peripheral Nervous System After Peripheral Neuropathy in Mice,” Pain 137:81-95 (2008), which are hereby incorporated by reference in their entirety).
Mechanical allodynia was evaluated using repeated stimulations with a Von Frey filament exerting 0.02 grams of force onto the plantar surface (Colburn et al., “The Effect of Site and Type of Nerve Injury on Spinal Glial Activation and Neuropathic Pain Behavior,” Exp. Neurol. 157:289-304. (1999), which is hereby incorporated by reference in its entirety). The percentage of negative responses of a total of 10 trials was calculated for each foot. Thermal hyperalgesia was assessed using an Analgesymeter (Ugo Basile, Comerio, Italy) (Stein et al., “Intrinsic Mechanisms of Antinociception in Inflammation: Local Opioid Receptors and Beta-Endorphin,” J. Neurosci. 10:1292-1298 (1990), which is hereby incorporated by reference in its entirety). In short, a mobile radiant heat source was focused on the hind paw, and the paw withdrawal latencies were defined as the time taken by the mouse to remove its hind paw from the heat source (max 20 sec to avoid tissue damage). The paw withdrawal was repeated three times for each foot and the average calculated. To avoid conditioning to stimulation a 5 min rest period was interposed between each trial in both thermal and mechanical tests. Behavioral parameters were evaluated prior to intraplantar injection of CFA or nerve ligation (i.e. day 0), and again on day 3-4 in mice receiving the CFA injection, and at day 5-7 in mice with nerve ligation unless otherwise noted. Prior to injection of CCPA, saline, or acupuncture in the Zusanli point, the mice were placed in a restraining under light isoflurane anesthesia (˜1%). The total duration of anesthesia was ˜2 min and mice with inflammatory, neurogenic pain, and their controls were treated similarly. 2-chloro-N6-cyclopentyl-adenosine (CCPA, 0.1 mM, 20 μl) was injected in the Zusanli point ˜5 min before acupuncture. […] The needle was slowly rotated ˜2 time (˜20-30 sec) every 5 min for a total of 30 min during an acupuncture session. A microdialysis probe (MD-2211, Bioanalytical systems, West Lafayette, Ind.) was implanted 1-3 hrs prior to collection of microdialysis samples. The microdialysis probe was implanted in a distance of 0.4-0.6 mm from the Zusanli point. The microdialysis probe was perfused with Ringer's solution at a rate of 1 μl per minute. The microdialysates were collected on ice and the perfusate collected over a 30 min period (30 μl) was immediately frozen at −80° C. until HPLC analysis. Deoxycoformycin was administered in a dose of 50 mg/kg i.p. 30 min prior to acupuncture.

[3] = system: mice with neuropathic pain; assay: Neuropathic pain (sciatic nerve ligation): mechanical allodynia and thermal hyperalgesia; type: in vivo
Procedure: Peripheral inflammation was induced by injection of Complete Freud Adjuvant (CFA, mixed with an equal amount of oil, total volume 0.1 ml) in the plantar surface of the left hind paw of mice (25-30 g, Jackson labs) (Raghavendra et al., “Complete Freunds Adjuvant-Induced Peripheral Inflammation Evokes Glial Activation and Proinflammatory Cytokine Expression in the CNS,” Eur. J. Neurosci. 20:467-473 (2004), which is hereby incorporated by reference in its entirety). An equal amount of saline (0.1 ml) was injected in the right hind paw as control. Neuropathic pain was induced by ligation of the sciatic nerve with 4.0 polypropylene suture in mice sedated with ketamine (60 mg/kg, i.p.) and xylazine (10 mg/kg, i.p.) (Bennett et al., “A Peripheral Mononeuropathy in Rat that Produces Disorders of Pain Sensation Like Those Seen in Man,” Pain 33:87-107 (1988); Martucci et al., “The Purinergic Antagonist PPADS Reduces Pain Related Behaviours and Interleukin-1 beta, Interleukin-6, iNOS and nNOS Overproduction in Central and Peripheral Nervous System After Peripheral Neuropathy in Mice,” Pain 137:81-95 (2008), which are hereby incorporated by reference in their entirety).
Mechanical allodynia was evaluated using repeated stimulations with a Von Frey filament exerting 0.02 grams of force onto the plantar surface (Colburn et al., “The Effect of Site and Type of Nerve Injury on Spinal Glial Activation and Neuropathic Pain Behavior,” Exp. Neurol. 157:289-304. (1999), which is hereby incorporated by reference in its entirety). The percentage of negative responses of a total of 10 trials was calculated for each foot. Thermal hyperalgesia was assessed using an Analgesymeter (Ugo Basile, Comerio, Italy) (Stein et al., “Intrinsic Mechanisms of Antinociception in Inflammation: Local Opioid Receptors and Beta-Endorphin,” J. Neurosci. 10:1292-1298 (1990), which is hereby incorporated by reference in its entirety). In short, a mobile radiant heat source was focused on the hind paw, and the paw withdrawal latencies were defined as the time taken by the mouse to remove its hind paw from the heat source (max 20 sec to avoid tissue damage). The paw withdrawal was repeated three times for each foot and the average calculated. To avoid conditioning to stimulation a 5 min rest period was interposed between each trial in both thermal and mechanical tests. Behavioral parameters were evaluated prior to intraplantar injection of CFA or nerve ligation (i.e. day 0), and again on day 3-4 in mice receiving the CFA injection, and at day 5-7 in mice with nerve ligation unless otherwise noted. Prior to injection of CCPA, saline, or acupuncture in the Zusanli point, the mice were placed in a restraining under light isoflurane anesthesia (˜1%). […]

[4] = system: mice with inflammatory or neuropathic pain; assay: Statements covering both inflammatory and neuropathic pain models; type: in vivo; settings: both pain models
Procedure: Peripheral inflammation was induced by injection of Complete Freud Adjuvant (CFA, mixed with an equal amount of oil, total volume 0.1 ml) in the plantar surface of the left hind paw of mice (25-30 g, Jackson labs) (Raghavendra et al., “Complete Freunds Adjuvant-Induced Peripheral Inflammation Evokes Glial Activation and Proinflammatory Cytokine Expression in the CNS,” Eur. J. Neurosci. 20:467-473 (2004), which is hereby incorporated by reference in its entirety). An equal amount of saline (0.1 ml) was injected in the right hind paw as control. […]
Mechanical allodynia was evaluated using repeated stimulations with a Von Frey filament exerting 0.02 grams of force onto the plantar surface (Colburn et al., “The Effect of Site and Type of Nerve Injury on Spinal Glial Activation and Neuropathic Pain Behavior,” Exp. Neurol. 157:289-304. (1999), which is hereby incorporated by reference in its entirety). The percentage of negative responses of a total of 10 trials was calculated for each foot. Thermal hyperalgesia was assessed using an Analgesymeter (Ugo Basile, Comerio, Italy) (Stein et al., “Intrinsic Mechanisms of Antinociception in Inflammation: Local Opioid Receptors and Beta-Endorphin,” J. Neurosci. 10:1292-1298 (1990), which is hereby incorporated by reference in its entirety). […] The paw withdrawal was repeated three times for each foot and the average calculated. […] Behavioral parameters were evaluated prior to intraplantar injection of CFA or nerve ligation (i.e. day 0), and again on day 3-4 in mice receiving the CFA injection, and at day 5-7 in mice with nerve ligation unless otherwise noted. […]

[5] = system: fEPSP in anterior cingulate cortex; assay: In vivo electrophysiology: fEPSP in left anterior cingulate cortex evoked by painful foot shock; set-up: species or system mice
Procedure: Mice were anaesthetized with 2-3% isoflurane, intubated, and artificially ventilated with a small animal ventilator (SAAR-830, CWE). Body temperature was monitored by a rectal probe and maintained at 37° C. by a heating blanket (BS4, Harvard Apparatus). A craniotomy (1-1.5 mm in diameter), centered 0.1 mm anterior to the bregma and 1.5 mm lateral from midline, was made over the left anterior cingulated cortex. A custom-made metal plate was glued to the skull with dental acrylic cement. The mice were for the remaining part of the experiment maintained at 2% isoflurane. LFP recordings were obtained from layer 4 of anterior cingulate cortex (ACC), 0.8 mm below the pial surface by a patch pipette (TW100E-4, WPI; outer diameter, 1.0 mm; inner diameter, 0.75 mm; tip diameter, 1-2 μm). […] Dura matter was kept intact. A custom-made bipolar electrode was inserted subcutaneously into the right hindpaw. High intensity stimulation (10 mA, 20 ms) were evoked every 120 sec. Lower stimulation intensities evoked either no or variable responses consistent with the idea that that ACC neurons respond primarily to painful stimuli Wei et al., “Potentiation of Sensory Responses in the Anterior Cingulate Cortex Following Digit Amputation in the Anaesthetised Rat,” J. Physiol. 532:823-833 (2001), which is hereby incorporated by reference in its entirety). The amplitude of the field EPSPs was measured using the pCLAMP 9.2 program (Axon Instruments, Inc., Foster City, Calif., USA).

Rat Parotid Ecto-ATPase = settings: cited from earlier work
Ecto-ATPase [6] = settings: Crack et al.; cited from earlier work
Ecto-ATPase [7] = settings: cited from earlier work
P2 receptors = settings: cited from earlier work
adenosine kinase [8] = target: T1, adenosine kinase (Homo sapiens, UniProt P55263); settings: adenosine as substrate; cited from earlier work
adenosine transport = adenosine transport inhibitors; unit inferred; cited from earlier work
adenosine kinase [9] = target: T1, adenosine kinase; settings: cited from earlier work

T1 sequence (P55263 whole entry, species assumed): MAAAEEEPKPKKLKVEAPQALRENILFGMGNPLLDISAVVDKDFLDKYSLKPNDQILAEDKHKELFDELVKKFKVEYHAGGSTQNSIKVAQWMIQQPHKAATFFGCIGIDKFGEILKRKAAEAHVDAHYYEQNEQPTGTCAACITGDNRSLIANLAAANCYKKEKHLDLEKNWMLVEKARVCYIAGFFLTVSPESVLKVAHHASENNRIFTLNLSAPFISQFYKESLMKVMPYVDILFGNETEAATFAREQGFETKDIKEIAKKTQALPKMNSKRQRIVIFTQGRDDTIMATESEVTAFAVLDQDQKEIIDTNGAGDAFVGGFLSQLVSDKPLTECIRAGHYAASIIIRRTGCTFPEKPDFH

rate of phosphate generation [1]: 0.043 ± 0.005 µM/mg/min
SMILES: Nc1ncnc2c1ncn2[C@@H]1O[C@H](COP(=O)(O)O)[C@@H](O)[C@H]1O [AMP]

SMILES: OC[C@H]1O[C@@H](n2cnc3c(NC4CCCC4)nc(Cl)nc32)[C@H](O)[C@@H]1O [CCPA, 2-chloro-N(6)-cyclopentyladenosine]
mechanical and thermal hypersensitivity / pain threshold in right foot ([2]; 0.1 mM, 20 μl injected in the left (contralateral) Zusanli point): no effect; also recorded: did not alter the pain threshold
mechanical and thermal pain in mice with deletion of A1 receptors ([2]; A1R KO mice): no clinical benefit
paw withdrawal (thermal) ([2]; WT mice, after 0.1 mM, 20 μl in right Zusanli point, before: 3.7±0.3): 12.7 ± 1.5 s
touch sensitivity (percentage of negative responses of 10 Von Frey trials) ([2]; WT mice, after 0.1 mM, 20 μl in right Zusanli point, before: 38.0±2.5): 85.7±2.0%
withdrawal of foot (thermal) ([3]; WT mice, after injection in Zusanli point, before: 2.9±0.3): 16.2 ± 2.4 s
touch sensitivity (percentage of negative responses of 10 Von Frey trials) ([3]; WT mice, after injection in Zusanli point, before: 25.0±2.2): 83.3±4.9%
mechanical and thermal hypersensitivity / pain threshold in right foot ([3]; injected in the left (contralateral) Zusanli point): no effect; also recorded: did not alter the pain threshold
course of the pain-relieving effect [4]: transient
sensitivity to painful stimulation in the contralateral (left) leg ([4]; injection in right Zusanli point): did not alter sensitivity
fEPSP response in mice with deletion of A1 receptors ([5]; A1R KO mice): failed to respond
fEPSP amplitude ([5]; WT, 0.1 mM 20 μl in right Zusanli point (ipsilateral), within 20 min, before ~0.65 mV): ~0.22 mV
fEPSP amplitude, % of baseline values ([5]; WT, ipsilateral injection, within 20 min): 26.6±11.0%
effect on fEPSP ([5]; administered contralateral to the painful stimulation): no effect

SMILES: Nc1ncnc2c1ncn2[C@@H]1O[C@H](COP(=O)(O)CP(=O)(O)O)[C@@H](O)[C@H]1O [AOPCP]
dephosphorylation of AMP (phosphate production) [1]: did not reduce dephosphorylation of AMP

SMILES: [O]=[Mo](=[O])([O-])[O-] [molybdate]
dephosphorylation of AMP (phosphate production) [1]: partly suppressed dephosphorylation of AMP

SMILES: O=S(=O)(NCCNC/C=C/c1ccc(Br)cc1)c1cccc2cnccc12 [H-89]
CFA-induced mechanical pain hypersensitivity, contralateral paw ([2]; injected in the Zusanli point): not the contralateral paw
CFA-induced mechanical pain hypersensitivity, ipsilateral (right leg) ([2]; injected in the Zusanli point): transiently and significantly reduced; also recorded: reduced pain temporarily

SMILES: CCN(CC)c1ncnc2c1ncn2[C@@H]1O[C@H](COP(=O)(O)OP(=O)(O)C(Br)(Br)P(=O)(O)O)[C@@H](O)[C@H]1O [ARL67156]
IC50 (Rat Parotid Ecto-ATPase): 120000 nM
IC50 (Ecto-ATPase [6]): 4600 nM
Ki (Ecto-ATPase [7]): 255 nM
effect on P2 receptors (P2 receptors): lack of or only has weak effect

rate of phosphate generation [1]: 0.428 ± 0.046 µM/mg/min
SMILES: Nc1ncnc2c1ncn2[C@@H]1O[C@H](COP(=O)(O)OP(=O)(O)OP(=O)(O)O)[C@@H](O)[C@H]1O [ATP]

SMILES: Nc1ncnc2c1ncn2[C@@H]1O[C@H](CO)[C@@H](O)[C@H]1O [adenosine]
Km (adenosine kinase [8]): ~0.02 µM

SMILES: NC(=O)C1CN(CCCCC(c2ccc(F)cc2)c2ccc(F)cc2)CCN1CC(=O)Nc1c(Cl)cc(N)cc1Cl (centres unmarked) [R75231, 2-(aminocarbonyl)-N-(4-amino-2,6-dichlorophenyl)-4-[5,5-bis(4-fluorophenyl)pentyl]-1-piperazineacetamide]
Ki (adenosine transport): 0.1 nM

SMILES: Nc1ncnc2c1c(Br)cn2[C@@H]1C[C@H](N)[C@@H](O)[C@H]1O [A-286501, N7-((1′R,2′S,3′R,4′S)-2′,3′-dihydroxy-4′-amino-cyclopentyl)-4-amino-5-bromo-pyrrolo[2,3-a]pyrimidine]
IC50 (adenosine kinase [9]): 0.47 nM
